Measured values from US4789670A, “Method and compositions for suppression of atherogenesis utilizing cholesterol hydroperoxides” (priority 1987, dated 1988).

Columns and labels:
Bovine brain calmodulin = Bovine brain calmodulin (Bos taurus, UniProt P62157); assay: Calmodulin assayed by activation of calmodulin-dependent cyclic nucleotide phosphodiesterase; format: biochemical; settings: 122 μM
Text: Bovine brain calmodulin was purified to homogeneity according to the method described by Sharma and Wang (1979), cited above, with the inclusion of phenyl-Sepharose affinity chromatography as described by Dedman and Kaetzel (1983) Methods Enzymol., 102:1-8. Calmodulin-deficient, calmodulin-dependent cyclic nucleotide phosphodiesterase from bovine brain was partially purified by the method described by Sharma et al. (1983) Methods Enzymol., 102:210-219, with the omission of the calmodulin-Sepharose affinity chromatography. Calmodulin was assayed by the activation of the bovine brain calmodulin-dependent cyclic, nucleotide phosphodiesterase as described by Leung et al. (1982) J. Biol. Chem., 259:2742-2747. Briefly, the phosphodiesterase reaction was coupled to the 5,'-nucleotidase reaction. The amount of phosphate released was measured by the malachite green method of Carter and Karl (1982) J. Biochem. Biophys. Methods, 7:7-13. One unit of calmodulin is defined as that amount giving 50% of the maximal activation of the phosphodiesterase.

[1] = test system: rabbits fed an atherogenic diet; settings: cited from earlier work
[2] = test system: New Zealand white rabbits; assay: Rabbit feeding experiments: aortas stained with Sudan IV for atherosclerotic lesions; format: in vivo
Protocol: (§1) For the first feeding experiment, eighteen young adult New Zealand white rabbits (2.7+/-0,3 kg) were divided into […]. The first group (3 animals) was killed immediately and tissue samples obtained for comparison with the experimental animals. The controls (3 rabbits) were fed 160 g/day Purina Pelleted Rabbit Chow (Ralston Purina Co., St. Louis, MO.); the other three groups (4 rabbits each) received the same diet to which was added 1.6 g recrystallized cholesterol, or 50 mg of the cholesterol hydroperoxide-enriched material, or both 1.6 g recrystallized cholesterol and 50 mg of cholesterol hydroperoxides. The sterols were added to the pelleted diet in ethyl ether and the ether was allowed to evaporate under a stream of nitrogen. The animals were fed this diet for 61 days, during which time one animal on the cholesterol diet died of unknown causes. The weight gained by the animals during the experiment, as percent of initial weight, was: controls, 38%; cholesterol, 33%; hydroperoxides, 34%; and cholesterol plus hydroperoxides, 18%. At the end of the feeding period the animals were killed and blood and tissue samples obtained for further investigation.
A second feeding experiment was conducted in the same way as the first with the following changes. Twenty-six rabbits (2.8 +/-0.05 kg) were obtained; two were killed before the feeding experiment began and tissue samples obtained as before. The remaining animals were divided into 6 groups of 4. Four groups received the same diets as in the first experiment. The other two groups received 160/g day Purina Pelleted Rabbit Chow to which was added 50 mg/day of the material produced by reduction of the hydroperoxide-enriched material with NaI; or 1.6 g/day recrystallized cholesterol plus 50 mg/day of the reduced material. […]
The aortas were sectioned longitudinally and stained with Sudan IV (Holman et al., 1958Lat. Invest., 7:42-47). […] J. Biochem. and Physiol., 37:911-917 and free and esterified cholesterol concentrations in plasma, lipoproteins, and tissue were determined by the method of Sale (1984) Anal. Biochem., 142:347-350.

[3] = Rabbit feeding experiments: blood plasma cholesterol and cholesterol esters; format: in vivo; settings: +/- S.D.
Protocol: as §1
A second feeding experiment was conducted in the same way as the first with the following changes. Twenty-six rabbits (2.8 +/-0.05 kg) were obtained; two were killed before the feeding experiment began and tissue samples obtained as before. The remaining animals were divided into 6 groups of 4. Four groups received the same diets as in the first experiment. The other two groups received 160/g day Purina Pelleted Rabbit Chow to which was added 50 mg/day of the material produced by reduction of the hydroperoxide-enriched material with NaI; or 1.6 g/day recrystallized cholesterol plus 50 mg/day of the reduced material. The animals received all six diets for 56 days, during which time one control animal and one receiving the hydroperoxide preparation died during removal of blood samples. The weight gain, as percent of initial weight, was: controls, 45%; cholesterol, 31%; hydroperoxides, 29%; cholesterol plus hydroperoxides, 31%; reduced hydroperoxides 35%, and cholesterol plus reduced hydroperoxides, 30%.
(§2) The aortas were sectioned longitudinally and stained with Sudan IV (Holman et al., 1958Lat. Invest., 7:42-47). Serum lipoproteins were separated as described by Havel et al. (1955) J. Clin. Invest., 34:1345-1353. Lipids were extracted by the method of Bligh and Dyer (1959) Can. J. Biochem. and Physiol., 37:911-917 and free and esterified cholesterol concentrations in plasma, lipoproteins, and tissue were determined by the method of Sale (1984) Anal. Biochem., 142:347-350.

[4] = Rabbit feeding experiment: cholesterol and cholesterol esters in liver and heart; format: in vivo; settings: first feeding experiment, +/- S.D.
Protocol: as §1, §2

CC(C)CCC[C@@H](C)[C@H]1CC[C@H]2[C@@H]3CCC4=CC(=O)CC[C@]4(C)[C@H]3CC[C@]12C [4-cholesten-3-one]
effect in the phosphodiesterase assay (Bovine brain calmodulin): without effect

CC(C)CCC[C@@H](C)[C@H]1CC[C@H]2[C@@H]3C(=O)C=C4C[C@@H](O)CC[C@]4(C)[C@H]3CC[C@]12C [5-cholesten-3β-ol-7-one]
effect in the phosphodiesterase assay (Bovine brain calmodulin): without effect

CC(C)CCC[C@@H](C)[C@H]1CC[C@H]2[C@@H]3C[C@@H]4O[C@@]45C[C@@H](O)CC[C@]5(C)[C@H]3CC[C@]12C [Cholesterol-5α,6α-epoxide, cholesterol-5α,6α-epoxide]
effect in the phosphodiesterase assay (Bovine brain calmodulin): without effect

CN(C)CCCN1c2ccccc2Sc2ccc(Cl)cc21 [chlorpromazine]
development of atherosclerotic lesions [1]: reduced the development of such lesions
effect on blood cholesterol [1]: without lowering of blood cholesterol

CC(C)CCC[C@@H](C)[C@H]1CC[C@H]2[C@@H]3CC=C4C[C@@H](O)CC[C@]4(C)[C@H]3CC[C@]12C [cholesterol]
atherosclerotic lesions in aorta (Sudan IV) ([2]; first feeding experiment, 61 days, added to chow: 1.6 g/day cholesterol and/or 50 mg/day hydroperoxide material): heavily infiltrated with fatty material
atherosclerotic lesions in aorta (Sudan IV) ([2]; first feeding experiment, 61 days, added to chow: 1.6 g/day cholesterol and/or 50 mg/day hydroperoxide material, listed as Cholesterol): extensive atheroma formation
atherosclerotic lesions in aorta (Sudan IV) ([2]; second feeding experiment, 56 days, added to chow: 1.6 g/day cholesterol and/or 50 mg/day test material): less than in the first experiment
Final blood plasma Cholesterol ([3]; first feeding experiment): 446 ± 163 mg/dL
Final blood plasma Cholesterol Esters ([3]; first feeding experiment): 1507 ± 361 mg/dL
Final blood plasma Cholesterol ([3]; second feeding experiment): 828 ± 459 mg/dL
Final blood plasma Cholesterol Esters ([3]; second feeding experiment): 1520 ± 820 mg/dL
cholesterol and esters, HEART [4]: 158 +/- 74 mg/100 g wet tissue
cholesterol and esters, LIVER [4]: 4960 +/- 1416 mg/100 g wet tissue
cholesterol, HEART [4]: 160 +/- 24 mg/100 g wet tissue
cholesterol, LIVER [4]: 1217 +/- 615 mg/100 g wet tissue
